Reference: patent publication EP0405997B1, “Antibiotic agent” (Merck & Co., Inc., priority 1989, dated 1991)
≈ marks a conversion by molar mass, not a printed value. Like-named read-outs stand apart in the source and are kept apart here. Numbered stars: 1 amine (or outer) side, 2 acyl side, 3 side chain; on linkers, the order of the positions; unused ones are H or OH. Bridge positions count the residues as written; N and C are the ends. Square brackets hold non-standard residues; d marks the D form. Peptide text beside a SMILES is read from it. * marks the point of attachment. Orn(4R-OH,5R-OH) = O=C([C@H](C[C@@H](O)[C@@H](O)N[*:3])N[*:1])[*:2]; Tetradecanoyl(10R,12S-Me2) = CC[C@H](C)C[C@H](C)CCCCCCCCC(=O)*; hTyr(3S-OH,4S-OH) = N[C@H](C(=O)O)[C@H](O)[C@@H](O)c1ccc(O)cc1; Gln(3R-OH) = NC(=O)C[C@@H](O)[C@H](N)C(=O)O; Pro(3S-OH) = O=C(O)[C@H]1NCC[C@@H]1O; Hyp = O=C(O)[C@@H]1C[C@@H](O)CN1

Legend:
Candida albicans = assay: microbe, parasite or virus in culture
Protocol: (§1) In carrying out the assay, Compound I was solubilized in 10 percent dimethyl sulfoxide (DMSO) and diluted to 2560 µg/ml. The compounds were further diluted to 256 µg/ml in YNBD. Then 0.15 ml of the suspension was dispensed to the first row of a 96-well plate (each well containing 0.15 ml of YNDB) resulting in a drug concentration of 128 µg/ml. Two-fold dilutions were then made to obtain final drug concentrations ranging from 128 to 0.06 µg/ml.
(§2) The yeast cultures, maintained on Sabouraud dextrose agar were transferred to YM broth (Difco) and incubated overnight at 35°C with shaking (250 rpm). After incubation, each culture was diluted in sterile water to yield a final concentration of 1-5 x 10⁶ colony forming units (CFU)/ml.
(§3) 96-well microplates were inoculated using a MIC-2000 (Dynotech) which delivers 1.5 µl per well yielding a final inoculum per well of 1.5-7.5 x 10³ cells. The microplates were incubated at 35°C for 24 hours. The minimum inhibitory concentrations (MICs) were recorded as the lowest concentrations of drug showing no visible growth.
(§4) After recording the MIC, the plates were shaken to resuspend the cells. Thereafter, 1.5 µl samples from the wells in the 96-well microplate were transferred to a single well tray containing Sabouraud dextrose agar. The inoculated trays were incubated 24 hours at 28°C and then read. The MFC is defined as the lowest concentration of drug showing no growth or less than 4 colonies per spot.

Candida parapsilosis = assay: microbe, parasite or virus in culture
Protocol: as §1, §2, §3, §4

Candida tropicalis = assay: microbe, parasite or virus in culture; settings: read-out: Minimum Fungicidal Concentration
Protocol: as §1, §2, §3, §4

[1] = Solubility in organic solvents; format: physicochemical; settings: methanol, ethanol, dimethylformamide, dimethyl sulfoxide, ethyl acetate and the like
Pneumocystis carinii = settings: dexamethasone-immunosuppressed male C3H/Hej mice; 0.5 mg/kg intraperitoneally twice daily for two weeks; lung tissue
Protocol: In a representative study ten male C3H/Hej mice, weighing 22-24 gms. each, were immunosuppressed by the addition of dexamethasone to the drinking water (8.0 mg/L) for six weeks to induce the development of P. carinii infections. To enhance the infection the mice were also maintained on a low protein diet. At the beginning of the seventh week the mice were divided into two groups. Both groups continued to receive dexamethasone in the drinking water and low protein diet for the remainder of the study. Mice in Group I were injected intraperitoneally twice daily with 0.5 ml of a 20% DMSO solution as a vehicle control. […] The treatment period lasted two weeks.
At the end of the treatment period (a total of eight weeks immunosuppression) the animals were sacrificed and the lung tissues removed. The tissue was then processed to determine the number of cysts for each animal.

solubility [1]: soluble in organic solvents
Structure (SMILES): CC[C@H](C)C[C@H](C)CCCCCCCCC(=O)N[C@H]1C[C@@H](O)[C@@H](O)NC(=O)[C@@H]2[C@@H](O)CCN2C(=O)[C@H]([C@H](O)CC(N)=O)NC(=O)[C@H]([C@H](O)[C@@H](O)c2ccc(O)cc2)NC(=O)[C@@H]2C[C@@H](O)CN2C(=O)[C@H]([C@@H](C)O)NC1=O [Compound I, 1-[4,5-dihydroxy-N²-(10,12-dimethyl-1-oxotetradecyl)-ornithine]-5-(3-hydroxyglutamine)-6-(3-hydroxyproline)echinocandin B] ({Tetradecanoyl(10R,12S-Me2)}-[Orn(4R-OH,5R-OH)]T[Hyp][hTyr(3S-OH,4S-OH)][Gln(3R-OH)][Pro(3S-OH)]; lactam 1-C)
MFC (Candida albicans; read-out: Minimum Fungicidal Concentration, Candida albicans MY 1028, YNBD medium): 1 µg/mL (≈ 0.939 µM) | MFC (Candida albicans; read-out: Minimum Fungicidal Concentration, Candida albicans MY 1208, YNBD medium): 0.5 µg/mL (≈ 0.469 µM) | MFC (Candida albicans; read-out: Minimum Fungicidal Concentration, Candida albicans MY 1585, YNBD medium): 0.5 µg/mL (≈ 0.469 µM) | MFC (Candida albicans; read-out: Minimum Fungicidal Concentration, Candida albicans MY 1750, YNBD medium): 0.25 µg/mL (≈ 0.235 µM) | MFC (Candida albicans; read-out: Minimum Fungicidal Concentration, Candida albicans MY 1783, YNBD medium): 0.5 µg/mL (≈ 0.469 µM) | Minimum Fungicidal Concentration (Candida parapsilosis; Candida parapsilosis MY 1010, YNBD medium): 8.0 µg/mL | MFC (Candida parapsilosis; Lodderomyces parapsilosis, read-out: Minimum Fungicidal Concentration): 8 µg/mL (≈ 7.51 µM) | MFC (Candida tropicalis): 2 µg/mL (≈ 1.88 µM) | reduced the number of cysts as compared to the control animals (Pneumocystis carinii): 81%
